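1) Cells in 96-well plates. 2) Compound, 48 h, 5 concentrations. 3) Linear interpolation between surrounding doses. 4) Unreached endpoint = highest concentration. At the GI50, growth is halved. TGI is the concentration that stops growth completely.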
Key:
Assay in all cases: NCI tumour cell line growth inhibition, 48 h
KM20L2 colon = system: KM20L2 colon
DMS 114 small cell lung = system: DMS 114 small cell lung
SNB-78 CNS = system: SNB-78 CNS
M19-MEL melanoma = system: M19-MEL melanoma
XF 498 CNS = system: XF 498 CNS
HOP-18 NSCLC = system: HOP-18 NSCLC
DLD-1 colon = system: DLD-1 colon
MDA-N = system: MDA-N
RXF-631 renal = system: RXF-631 renal
P388/ADR leukemia = system: P388/ADR leukemia
P388 leukemia = system: P388 leukemia
SN12K1 renal = system: SN12K1 renal

## FC(F)(F)c1nc(-c2ccccc2Cl)[nH]c1C(F)(F)F
KM20L2 colon
  TGI: 3.44 µM
DMS 114 small cell lung
  TGI: 1.9 µM
SNB-78 CNS
  TGI: > 29.5 µM
M19-MEL melanoma
  TGI: 3.77 µM
XF 498 CNS
  TGI: 1.54 µM
HOP-18 NSCLC
  TGI: 2.6 µM
DLD-1 colon
  TGI: > 29.5 µM

## Cn1cc(NC(=O)c2cc(NC(=O)CCCCCCCCCCC(=O)Nc3cc(C(=O)Nc4cc(C(=O)NCCC(=N)N)n(C)c4)n(C)c3)cn2C)cc1C(=O)NCCC(=N)N
KM20L2 colon
  TGI: > 100 µM
SNB-78 CNS
  TGI: > 100 µM
XF 498 CNS
  TGI: > 100 µM
HOP-18 NSCLC
  TGI: > 100 µM
DLD-1 colon
  TGI: > 100 µM

## CC(=O)OCC1OC(O[C@@H]2C[C@H]3C(C)(C)[C@H](OC(C)=O)CC[C@]3(C)[C@H]3CCC4=C([C@@H](C)C[C@@H](O)[C@H](O)C(C)(C)O)CC[C@@]4(C)[C@@]32C)C(O)C(O)C1O (stereo not given in full)
MDA-N
  GI50: 16.8 µM
  TGI: 30.5 µM

## O=c1cc(-c2cccc(F)c2)[nH]c2cc3c(cc12)OCO3
MDA-N
  TGI: 0.0407 µM
DMS 114 small cell lung
  TGI: 2.24 µM
SNB-78 CNS
  TGI: 75 µM
M19-MEL melanoma
  TGI: 75 µM
XF 498 CNS
  TGI: 75 µM
HOP-18 NSCLC
  TGI: 75 µM
DLD-1 colon
  TGI: 8.93 µM

## CC(CO)(CO)N=Cc1cc(I)cc(I)c1O
MDA-N
  TGI: 64.2 µM

## Cc1cc2c(cc1C)[n+](=O)c(C(=O)C/C(=N/NC(=O)c1ccccc1O)C(=O)Nc1ccccc1C(C)C)c(C)n2[O-]
KM20L2 colon
  TGI: > 100 µM
DMS 114 small cell lung
  TGI: > 100 µM
SNB-78 CNS
  TGI: > 100 µM
M19-MEL melanoma
  TGI: > 100 µM
HOP-18 NSCLC
  TGI: > 100 µM
DLD-1 colon
  TGI: > 100 µM
RXF-631 renal
  TGI: > 100 µM

## NC(CO)Cc1cnc[nH]1 (stereo not given)
MDA-N
  GI50: > 100 µM
  TGI: > 100 µM

## N#CC1(c2nc3ccccc3o2)C(=O)C(=O)N(C2C3CC4CC(C3)CC2C4)C(=O)C1=O (stereo not given)
KM20L2 colon
  TGI: > 100 µM
DMS 114 small cell lung
  TGI: > 100 µM
SNB-78 CNS
  TGI: > 100 µM
M19-MEL melanoma
  TGI: > 100 µM
XF 498 CNS
  TGI: > 100 µM
HOP-18 NSCLC
  TGI: > 100 µM

## CN(C)/C(=N/C(=S)Nc1ccccc1)SCc1ccccc1
DMS 114 small cell lung
  TGI: > 100 µM
SNB-78 CNS
  TGI: > 100 µM
M19-MEL melanoma
  TGI: > 100 µM
XF 498 CNS
  TGI: > 100 µM
HOP-18 NSCLC
  TGI: > 100 µM
DLD-1 colon
  TGI: > 100 µM
RXF-631 renal
  TGI: > 100 µM

## COc1ccc2cc1Oc1ccc(cc1)C[C@H]1c3cc(c(OC)cc3CCN1C)Oc1c(OC)c(OC)cc3c1[C@H](C2)N(C)CC3
KM20L2 colon
  TGI: 10.7 µM
P388/ADR leukemia
  TGI: 14.9 µM
DMS 114 small cell lung
  TGI: 15.3 µM
SNB-78 CNS
  TGI: 21.1 µM
XF 498 CNS
  TGI: 18.1 µM
P388 leukemia
  TGI: 9.38 µM
HOP-18 NSCLC
  TGI: 20.3 µM
SN12K1 renal
  TGI: 14 µM
DLD-1 colon
  TGI: 20.5 µM

## CCCCCCCCCCCCCCCC(=O)NCC(COP(=O)([O-])OCC[N+](C)(C)C)OCC (stereo not given)
KM20L2 colon
  TGI: 13.7 µM
DMS 114 small cell lung
  TGI: 29.8 µM
SNB-78 CNS
  TGI: 29.6 µM
M19-MEL melanoma
  TGI: 16.2 µM
XF 498 CNS
  TGI: 25.5 µM
HOP-18 NSCLC
  TGI: 4.53 µM
DLD-1 colon
  TGI: 16.9 µM

## CSc1nc(SC)c2c(CN=[N+]=[N-])c(Br)n(Cc3ccccc3)c2n1
MDA-N
  TGI: > 100 µM

## COC(=O)C(C#N)=C1c2ccccc2Oc2ccccc21
KM20L2 colon
  TGI: > 100 µM
DMS 114 small cell lung
  TGI: > 100 µM
SNB-78 CNS
  TGI: > 100 µM
M19-MEL melanoma
  TGI: > 100 µM
XF 498 CNS
  TGI: > 100 µM
DLD-1 colon
  TGI: > 100 µM

## CCCCCCCCCCCCC(=O)OC(c1cnco1)c1nc(C(O)CC(O)C(O)C(C)O)co1 (stereo not given)
KM20L2 colon
  TGI: > 48.2 µM
DMS 114 small cell lung
  TGI: 3.96 µM
M19-MEL melanoma
  TGI: > 52.7 µM
XF 498 CNS
  TGI: > 100 µM
HOP-18 NSCLC
  TGI: > 100 µM
DLD-1 colon
  TGI: > 100 µM

## COC(=O)C(c1[nH]nc2ccccc12)C(C(=O)OC)c1[nH]nc2ccccc12 (stereo not given)
KM20L2 colon
  TGI: > 100 µM
DMS 114 small cell lung
  TGI: 83.8 µM
SNB-78 CNS
  TGI: > 100 µM
M19-MEL melanoma
  TGI: > 100 µM
XF 498 CNS
  TGI: > 100 µM
HOP-18 NSCLC
  TGI: > 100 µM
DLD-1 colon
  TGI: > 100 µM
RXF-631 renal
  TGI: > 100 µM

## CCOc1ccc(NC(=O)CC2Sc3ccccc3NC2=O)cc1 (stereo not given)
KM20L2 colon
  TGI: > 100 µM
DMS 114 small cell lung
  TGI: > 100 µM
SNB-78 CNS
  TGI: > 100 µM
M19-MEL melanoma
  TGI: > 100 µM
HOP-18 NSCLC
  TGI: 54 µM
DLD-1 colon
  TGI: > 100 µM

## Clc1ccccc1C(c1ccccc1)(c1ccccc1)n1ccnc1
MDA-N
  TGI: 32.1 µM

## CCOC(=O)C1(CC)CCCCC(=O)N1 (stereo not given)
KM20L2 colon
  TGI: > 100 µM
DMS 114 small cell lung
  TGI: > 100 µM
SNB-78 CNS
  TGI: > 100 µM
M19-MEL melanoma
  TGI: > 100 µM
XF 498 CNS
  TGI: > 100 µM
HOP-18 NSCLC
  TGI: > 100 µM
DLD-1 colon
  TGI: > 100 µM

## O=C1NC2(CCCC2)C(=O)C12CCCC2
SNB-78 CNS
  TGI: > 100 µM
M19-MEL melanoma
  TGI: > 100 µM
XF 498 CNS
  TGI: > 100 µM
HOP-18 NSCLC
  TGI: > 100 µM
DLD-1 colon
  TGI: > 100 µM
RXF-631 renal
  TGI: > 100 µM

## C#CCNC(=O)NC(CCCNC(=O)OCc1ccccc1)C(=O)OCc1ccccc1 (stereo not given)
KM20L2 colon
  TGI: > 100 µM
DMS 114 small cell lung
  TGI: > 100 µM
SNB-78 CNS
  TGI: > 100 µM
M19-MEL melanoma
  TGI: > 100 µM
XF 498 CNS
  TGI: 26.9 µM
DLD-1 colon
  TGI: > 100 µM
RXF-631 renal
  TGI: > 100 µM

## Cc1ccccc1C(C#N)C(=O)C(=O)Nc1nc([N+](=O)[O-])cs1 (stereo not given)
KM20L2 colon
  TGI: > 100 µM
DMS 114 small cell lung
  TGI: > 100 µM
SNB-78 CNS
  TGI: > 100 µM
M19-MEL melanoma
  TGI: > 100 µM
XF 498 CNS
  TGI: > 100 µM
HOP-18 NSCLC
  TGI: > 100 µM
DLD-1 colon
  TGI: > 100 µM
RXF-631 renal
  TGI: > 100 µM

## CC(=O)[CH-]C(=O)c1ccccc1.CC(=O)[CH-]C(=O)c1ccccc1.CCCCCCCCCCCCCCCCCC(=O)[O-].CCCCCCCCCCCCCCCCCC(=O)[O-].[Ti+4]
KM20L2 colon
  GI50: 33.9 µM
  TGI: > 100 µM
M19-MEL melanoma
  GI50: 27.6 µM
  TGI: 97.9 µM
DLD-1 colon
  GI50: 31.7 µM
  TGI: > 100 µM

## C1COCCN1.C1COCCN1.N.N.[Cl-].[Pt+2]
KM20L2 colon
  GI50: > 100 µM
  TGI: > 100 µM
SNB-78 CNS
  GI50: > 100 µM
  TGI: > 100 µM
HOP-18 NSCLC
  GI50: > 100 µM
  TGI: > 100 µM
DLD-1 colon
  GI50: > 100 µM
  TGI: > 100 µM

## COC(=O)C(=O)CC(=O)CCn1ncc(Cl)c(Cl)c1=O
KM20L2 colon
  TGI: 33.4 µM
DMS 114 small cell lung
  TGI: 8.69 µM
SNB-78 CNS
  TGI: 50.8 µM
M19-MEL melanoma
  TGI: 15.3 µM
XF 498 CNS
  TGI: 44.6 µM
DLD-1 colon
  TGI: 24.9 µM
RXF-631 renal
  TGI: 23.6 µM

## O=[N+]([O-])[C@@H]1C2C=CC(C2)[C@H]1Cl (stereo not given in full)
DMS 114 small cell lung
  TGI: > 100 µM
SNB-78 CNS
  TGI: > 100 µM
M19-MEL melanoma
  TGI: > 100 µM
XF 498 CNS
  TGI: > 100 µM
HOP-18 NSCLC
  TGI: > 100 µM
DLD-1 colon
  TGI: > 100 µM
RXF-631 renal
  TGI: > 100 µM

## C=CC1=CSNN1
KM20L2 colon
  TGI: > 100 µM
DMS 114 small cell lung
  TGI: > 100 µM
M19-MEL melanoma
  TGI: > 100 µM
HOP-18 NSCLC
  TGI: > 100 µM
DLD-1 colon
  TGI: > 100 µM

## CC(=O)OC1=C2CC3(C)OC(=O)CC(C)(C)C3=CC=C2C=C(C(C)C)C1=O (stereo not given)
KM20L2 colon
  TGI: 3.38 µM
DMS 114 small cell lung
  TGI: 1.56 µM
SNB-78 CNS
  TGI: 0.985 µM
M19-MEL melanoma
  TGI: 1.75 µM
HOP-18 NSCLC
  TGI: 2.39 µM
DLD-1 colon
  TGI: 0.504 µM
RXF-631 renal
  TGI: 3.08 µM

## C=CCSC[C@H](NC(=O)COc1ccccc1)C(=O)NC(C(=O)OCc1ccc([N+](=O)[O-])cc1)=C(C)C
KM20L2 colon
  TGI: > 100 µM
DMS 114 small cell lung
  TGI: > 100 µM
SNB-78 CNS
  TGI: > 100 µM
M19-MEL melanoma
  TGI: > 100 µM
HOP-18 NSCLC
  TGI: > 100 µM
DLD-1 colon
  TGI: > 100 µM
RXF-631 renal
  TGI: > 100 µM

## CCOC(=O)CC1=Nc2ccccc2SC1
KM20L2 colon
  TGI: > 100 µM
DMS 114 small cell lung
  TGI: > 100 µM
SNB-78 CNS
  TGI: > 100 µM
M19-MEL melanoma
  TGI: > 100 µM
XF 498 CNS
  TGI: > 100 µM
HOP-18 NSCLC
  TGI: > 100 µM
DLD-1 colon
  TGI: > 100 µM
RXF-631 renal
  TGI: > 100 µM

## Cc1nn(-c2ccc(S(=O)(=O)[O-])cc2)c([O-])c1N=[N+](C)c1ccc(-c2ccc(N=Nc3ccc4c(S(=O)(=O)[O-])cc(S(=O)(=O)[O-])c(N)c4c3[O-])c([O-])c2)cc1[O-].[Cu+2].[Cu+2].[Na+]
MDA-N
  GI50: > 100 µM
  TGI: > 100 µM

Source: PubChem BioAssay (NCI)
